Experimental data from PMC10313808, “Lipoxygenase inhibitory synthetic derivatives of methyl gallate regulate gene expressions of COX-2 and cytokines to reduce animal model arthritis” (Scientific Reports, 2023).

Target: T1, LOX (Glycine max, UniProt P08170)
T1 construct: purchased Sigma (Sigma-Aldrich, UK)
T1 sequence (P08170 1-839): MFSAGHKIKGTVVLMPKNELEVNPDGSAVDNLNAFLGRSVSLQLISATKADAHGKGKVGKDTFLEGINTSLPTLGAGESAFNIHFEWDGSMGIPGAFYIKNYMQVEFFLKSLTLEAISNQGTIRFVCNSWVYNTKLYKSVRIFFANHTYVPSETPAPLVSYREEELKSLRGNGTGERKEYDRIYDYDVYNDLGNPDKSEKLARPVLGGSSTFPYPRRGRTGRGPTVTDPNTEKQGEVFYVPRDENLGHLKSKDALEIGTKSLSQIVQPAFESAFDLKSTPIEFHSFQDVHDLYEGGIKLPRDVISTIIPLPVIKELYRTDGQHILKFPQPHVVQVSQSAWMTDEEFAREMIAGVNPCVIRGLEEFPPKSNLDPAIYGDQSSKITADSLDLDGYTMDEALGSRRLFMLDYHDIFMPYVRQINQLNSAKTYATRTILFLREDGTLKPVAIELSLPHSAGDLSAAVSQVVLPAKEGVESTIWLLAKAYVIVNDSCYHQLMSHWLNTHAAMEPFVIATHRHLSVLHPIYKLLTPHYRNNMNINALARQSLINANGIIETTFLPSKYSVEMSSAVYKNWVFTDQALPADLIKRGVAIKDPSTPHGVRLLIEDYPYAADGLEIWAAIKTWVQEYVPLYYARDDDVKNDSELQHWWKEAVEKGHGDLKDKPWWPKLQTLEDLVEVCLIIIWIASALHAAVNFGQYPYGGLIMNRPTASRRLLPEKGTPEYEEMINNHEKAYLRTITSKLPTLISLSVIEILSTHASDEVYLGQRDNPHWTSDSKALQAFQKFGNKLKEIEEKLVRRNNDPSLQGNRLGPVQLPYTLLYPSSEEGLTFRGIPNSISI
Assay: Fluorescence quenching studies
Assay type: binding
Details: 296 K, pH 9
From the text: To analyze the type of mechanism, the data of fluorescence of LOX was plotted, as relative fluorescence intensity (F0/F), against MGSDs. Here F and F0 are the fluorescence intensity in the presence and absence of MGSDs respectively. The Stern–Volmer constants were obtained from the plot by linear regression using the expression: F0/F=1+KsvQ.
Ksv is the Stern–Volmer constant and [Q] is the respective concentration of derivatives. Ksv which depicts the binding affinity between the fluorophore (protein) and quencher (ligand), were obtained from the slopes of the plot (Supplementary Fig. 15). […] The Fluorescence quenching data provided information about the binding constant (K), the number of binding sites (n), and the values could be arrived by applying the equation. Log F0-F/F=log K+nlogQ.
The Fluoromax-4 spectrophotometer (Spectra-NanoLED source 278) was used for studying fluorescence quenching of the compound. Bandwidth set at 5 nm for both excitation and emission spectra. The wavelength was set for excitation at 280 nm and the emission was recorded at 290–450 nm using 1.0 cm cell at 296 K temperature. The LOX with a concentration of 7 μM, dissolved in borate buffer at pH 9 and ligands at the concentrations of 35, 70, 105, 140, 175, 210, 245 and 280 μM were used for the experiment.

- Kd (read-out: Binding constant (K) (converted)): 752 µM
- Quenching constant (Ksv) (Stern–Volmer): 6200 M⁻¹
Structure (SMILES): O=C(O)COc1cc(C(=O)O)cc(OCC(=O)O)c1OCC(=O)O [MGSD 1, 2,2′,2″-((5-carboxybenzene-1,2,3-triyl)tris(oxy)) tri acetic acid]
